Patent publication US20220389013A1, “PYRIDOPYRIMIDINONE COMPOUNDS AND APPLICATIONS THEREOF” (BeBetter Med Inc., priority 2020, published 2022)
Structures can show the parent of a compound that is named as a salt.

How the values were obtained:
in vitro = conditions: human; for efflux ratio at 90 min, 10 μM: Caco-2, pH 7.4
Text: (§3) In this experiment, a monolayer of Caco-2 cells was used to assess drug penetration. […] The apparent permeability coefficient from apical to basolateral (Papp A-B) and the basolateral to apical permeability coefficient (Papp B-A) of compounds represent the ability of the compound to be transported in both directions, respectively.
(§4) Apparent permeability coefficient (Papp)=(the volume of the receiver chamber/the filter surface area×culture time))×(the drug concentration of receiver chamber at the end of culture/(the drug concentration of donor chamber at the initial culture×dilution factor)
(§5) In this experiment, Millipore cell culture plates (PSHT 010 R5): membrane area=0.7 cm^2, recipient side volume=0.8 mL (A-to-B) or 0.4 mL (B-to-A), incubation time=90 minutes.

KRAS-G12C/SOS1 = target: T1, KRAS-G12C/SOS1 (Homo sapiens, UniProt P01116, G12C); assay: HTRF KRAS-G12C/SOS1 binding assay; conditions: 2 hours room temperature
T1 construct: purchased Cisbio #63ADK000CB16PEG
T1 sequence (P01116 1-188 isoform P01116-2 G12C): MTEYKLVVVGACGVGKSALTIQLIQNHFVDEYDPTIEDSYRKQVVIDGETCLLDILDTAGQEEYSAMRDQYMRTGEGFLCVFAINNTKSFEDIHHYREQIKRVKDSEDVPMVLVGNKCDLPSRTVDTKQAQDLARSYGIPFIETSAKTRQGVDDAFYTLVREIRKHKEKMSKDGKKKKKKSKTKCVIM
Experimental: 2) Diluted the compound to be tested with diluent into 10× stock solution, starting from a concentration of 10000 nM, diluting in 4-fold gradient and a total of 6 concentration gradients.
After incubated at room temperature for 15 minutes, added pre-mixed 5 uL of anti-Tag1-Tb^3+ and 5 uL of anti-Tag2-XL665. Sealed the plate and incubated at room temperature for 2 hours.
Data were processed by using Graphpad prism software.

H358 (KRAS G12C) = assay: Tumor cell proliferation inhibition assay (CellTiter-Glo), H358; type: cell-based, Human; conditions: Homo sapiens, NCI-H358, 72 h, 10% fetal bovine serum
How it was run: (§1)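 Growth was read as ATP by CellTiter-Glo luminescence, with inhibition normalised to DMSO (max) and medium-only (min) wells. IC50 came from sigmoidal dose-response fits.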

[1] = Caco-2 cell transmembrane transport experiment; conditions: human; for efflux ratio at 90 min, 10 μM: Caco-2, pH 7.4; for Papp B→A at 90 min, 10 μM: basolateral to apical
Text: as §3, §4, §5

[2] = Pharmacokinetic (PK) experiment in rats by gavage; type: in vivo; conditions: rat, plasma, po, male SD rats, 20 mg/kg; for AUC(0-t): read-out: AUC0-24
H358 xenograft tumor [3] = assay: H358 human non-small cell lung cancer subcutaneous mouse xenograft model, anticancer activity; type: in vivo, BALB/c nude mice; conditions: 100 mg/kg, po, qd, 26 days
Experimental: (§2) In this experiment, the anticancer activities of compounds 73-1 and 90-1 in the subcutaneous tumor model of H358 human non-small cell lung cancer xenograft mice, and the dose-response relationship of compound 73-1 in inhibiting the growth of H358 xenograft tumors were investigated. […] When H358 cells were cultured to a sufficient number, cells were collected. […] Vernier calipers were used to measure the size of the tumor. The formula for calculating the tumor volume is: tumor volume=(length×width^2)/2, and the formula for calculating the relative tumor proliferation rate T/C value is: T/C (%)=100×ΔT/ΔC (ΔT>0) or T/T (%)=100×ΔT/T0 (ΔT<0). ΔT is the difference of tumor volume in the treatment group, ΔC is the difference of tumor volume in the vehicle control group, and T0 is the tumor volume in the treatment group before administration.
The dosage of the all groups, except the vehicle control group, was 100 mg/kg, 10 mL/kg orally administered by gavage, once a day. […] All the groups were administered continuously for 26 days.

H23 (KRAS G12C) = assay: Tumor cell proliferation inhibition assay (CellTiter-Glo), H23; type: cell-based, Human; conditions: Homo sapiens, 72 h, 10% fetal bovine serum
Experimental: The H358, H23 or MIA-Paca2 cells were digested, centrifuged and resuspended, and the cell density was measured with a Scepter automatic cell counter. Cells were diluted to a solution containing 44,000 cells per milliliter, then added to a 96-well culture plate at 90 μL per well. The 96-well plate was placed in a 5% CO2 incubator at 37° C., and after the cells were cultured for 24 hours, different concentrations of the compounds to be tested were added. Cells were incubated with compounds in the presence of 10% fetal bovine serum for 72 hours. The inhibition of cell growth was assessed by measuring ATP levels by using the CellTiter-Glo Luminescent Cell Viability Assay Kit (details in manufacturer's instructions). In brief, 30 μL of CellTiter-Glo reagent was added to each well and the plate was shaken for 10 minutes to induce cell lysis, then the fluorescent signal was detected and recorded with a Fluoroskan Ascent FL (Thermo). Maximum signal values were obtained from cells treated with DMSO for 72 hours. Minimum signal values were obtained with medium only (zero cell number). Inhibition rate %=(maximum signal value-compound signal value)/(maximum signal value-minimum signal value)×100%. Data were processed by using Graphpad prism5 software. IC50 values were calculated using a sigmoidal dose-response curve.

MIA-Paca2 (KRAS G12C) = assay: Tumor cell proliferation inhibition assay (CellTiter-Glo), MIA-Paca2; type: cell-based, Human; conditions: 10% fetal bovine serum
How it was run: as §1

H358 xenograft tumor [4] = assay: H358 xenograft model, dose-response of compound 73-1; type: in vivo, BALB/c nude mice; conditions: po, qd, 28 days
Experimental: as §2
In the dose-response study of compound 73-1 inhibiting the growth of H358 xenograft tumors, when the H358 tumor volume reached an average of about 183 mm^3, the animals were respectively divided into different treatment groups, including vehicle (30% sulfobutyl-β-Cyclodextrin) control group, compound 73-1 orally administered group with doses of 12.5 mg/kg, 25 mg/kg, 50 mg/kg, and 100 mg/kg (n=8/group), administered once every day. […] All the groups were administered continuously for 28 days with 10 mL/kg oral administration.

[5] = test system: MIA Paca2 T2 xenograft tumor; assay: MIA Paca2 T2 human pancreatic cancer xenograft mouse subcutaneous model
Experimental: MIAPaca2 cells were cultured to sufficient numbers in DMEM containing 10% fetal bovine serum and 2.5% horse serum, then harvested. 5 million cells suspended in 0.1 mL of serum-free medium and Matrigel (1:1, v/v) were injected subcutaneously into the right flank area of each mouse, carefully avoiding blood vessels and serially passaged 2 times in animals. The size of the tumor was measured using a vernier caliper, and the method for calculating the tumor volume and T/C value was the same as above. […] The compounds were respectively dissolved in 30% sulfobutyl-β-cyclodextrin (SBE-β-CD) and 1.5 equivalent of 1 M HCl (pH 4-5) at the corresponding concentrations. 10 mL/kg was orally administered continuously by gavage for 28 days.

mouse tumors = conditions: mouse experiments, alone or combined; cited from earlier work
[6] = Caco-2, pH 7.4, Papp A-B Sample_01
[7] = Caco-2, pH 7.4, Papp A-B Sample_02
[8] = Caco-2, pH 7.4, Papp A-B mean value
[9] = Caco-2, pH 7.4, Papp B-A Sample_01
[10] = Caco-2, pH 7.4, Papp B-A Sample_02
[11] = Caco-2, pH 7.4, Papp B-A mean value
[12] = Caco-2, pH 7.4, Papp A-B Sample_01, 10 μM, pH 7.4, 37° C., 90 min, apical to basolateral
[13] = Caco-2, pH 7.4, Papp A-B Sample_02, 10 μM, pH 7.4, 37° C., 90 min, apical to basolateral
[14] = Caco-2, pH 7.4, Papp A-B mean value, 10 μM, pH 7.4, 37° C., 90 min, apical to basolateral
[15] = Caco-2, pH 7.4, Papp B-A Sample_01, 10 μM, pH 7.4, 37° C., 90 min
[16] = Caco-2, pH 7.4, Papp B-A Sample_02, 10 μM, pH 7.4, 37° C., 90 min
[17] = Caco-2, pH 7.4, Papp B-A mean value, 10 μM, pH 7.4, 37° C., 90 min
[18] = Caco-2, pH 7.4, apparent permeability coefficient Papp A-B, Caco-2

## COCCc1ccc(OCC(O)CNC(C)C)cc1 (stereo not drawn) [Metoprolol Tartrate]
In vitro
  efflux ratio at 90 min, 10 μM: 0.93
In vitro; [6]
  Papp A→B at 90 min, 10 μM: 33.3 ×10⁻⁶ cm/s
In vitro; [7]
  Papp A→B at 90 min, 10 μM: 36.4 ×10⁻⁶ cm/s
In vitro; [8]
  Papp A→B at 90 min, 10 μM: 34.8 ×10⁻⁶ cm/s
In vitro; [9]
  Papp B→A at 90 min, 10 μM: 29.4 ×10⁻⁶ cm/s
In vitro; [10]
  Papp B→A at 90 min, 10 μM: 35.4 ×10⁻⁶ cm/s
In vitro; [11]
  Papp B→A at 90 min, 10 μM: 32.4 ×10⁻⁶ cm/s

## CC[C@H]1OC(=O)[C@H](C)[C@@H](O[C@H]2C[C@@](C)(OC)[C@@H](O)[C@H](C)O2)[C@H](C)[C@@H](O[C@@H]2O[C@H](C)C[C@H](N(C)C)[C@H]2O)[C@](C)(O)C[C@@H](C)C(=O)[C@H](C)[C@@H](O)[C@]1(C)O [Erythromycin]
In vitro
  efflux ratio at 90 min, 10 μM: 30.6
In vitro; [6]
  Papp A→B at 90 min, 10 μM: 0.46 ×10⁻⁶ cm/s
In vitro; [7]
  Papp A→B at 90 min, 10 μM: 0.5 ×10⁻⁶ cm/s
In vitro; [8]
  Papp A→B at 90 min, 10 μM: 0.48 ×10⁻⁶ cm/s
In vitro; [9]
  Papp B→A at 90 min, 10 μM: 13.8 ×10⁻⁶ cm/s
In vitro; [10]
  Papp B→A at 90 min, 10 μM: 15.5 ×10⁻⁶ cm/s
In vitro; [11]
  Papp B→A at 90 min, 10 μM: 14.7 ×10⁻⁶ cm/s

## C=CC(=O)N1C[C@H](C)N(c2nc(=O)n(-c3c(C)ccnc3C(C)C)c3nc(-c4c(F)ccc5ccoc45)c(Cl)cc23)C[C@H]1C (single isomer, unassigned) [Compound 90-1]
KRAS-G12C/SOS1
  IC50: < 50 nM
H358 (KRAS G12C)
  IC50: < 10 nM
[1]
  efflux ratio at 90 min, 10 μM: 1.08
[1]; [12]
  Papp A→B at 90 min, 10 μM: 20.1 ×10⁻⁶ cm/s
[1]; [13]
  Papp A→B at 90 min, 10 μM: 20.4 ×10⁻⁶ cm/s
[1]; [14]
  Papp A→B at 90 min, 10 μM: 20.2 ×10⁻⁶ cm/s
[1]; [15]
  Papp B→A at 90 min, 10 μM: 18.6 ×10⁻⁶ cm/s
[1]; [16]
  Papp B→A at 90 min, 10 μM: 25.2 ×10⁻⁶ cm/s
[1]; [17]
  Papp B→A at 90 min, 10 μM: 21.9 ×10⁻⁶ cm/s
[1]; [18]
  Papp A→B at 90 min, 10 μM: > 10 ×10⁻⁶ cm/s
[2]
  AUC(0-inf): 13800 ng·h/mL
  Cmax: 3720 ng/mL
  Tmax: 1.33 h
  half-life: 196 min
  AUC(0-t): 13800 ng·h/mL
other
  melting point: 175 to 177 °C
H358 xenograft tumor [3]
  Changes of body weight (%): 23.3%
  tumor suppressor T/C value (%): −99.5%
H23 (KRAS G12C)
  IC50: < 10 nM
MIA-Paca2 (KRAS G12C); Homo sapiens, MIA PaCa-2, 72 h
  IC50: < 10 nM

## C=CC(=O)N1CCN(c2nc(=O)n(-c3c(C)ccnc3C(C)C)c3nc(-c4c(F)ccc5ccoc45)c(Cl)cc23)[C@@H](C)C1 (single isomer, unassigned) [Compound 73-1]
KRAS-G12C/SOS1
  IC50: < 50 nM
H358 (KRAS G12C)
  IC50: < 10 nM
[1]
  efflux ratio at 90 min, 10 μM: 1.12
[1]; [12]
  Papp A→B at 90 min, 10 μM: 16 ×10⁻⁶ cm/s
[1]; [13]
  Papp A→B at 90 min, 10 μM: 20.8 ×10⁻⁶ cm/s
[1]; [14]
  Papp A→B at 90 min, 10 μM: 18.4 ×10⁻⁶ cm/s
[1]; [15]
  Papp B→A at 90 min, 10 μM: 17.2 ×10⁻⁶ cm/s
[1]; [16]
  Papp B→A at 90 min, 10 μM: 24 ×10⁻⁶ cm/s
[1]; [17]
  Papp B→A at 90 min, 10 μM: 20.6 ×10⁻⁶ cm/s
[1]; [18]
  Papp A→B at 90 min, 10 μM: > 10 ×10⁻⁶ cm/s
[2]
  AUC(0-inf): 4320 ng·h/mL
  Cmax: 1750 ng/mL
  Tmax: 0.67 h
  half-life: 194 min
  AUC(0-t): 4300 ng·h/mL
H358 xenograft tumor [3]
  Changes of body weight (%): 10.1%
  effect on tumor (in words): cause the tumor to disappear completely
  tumor suppressor T/C value (%): −100.0%
H23 (KRAS G12C)
  IC50: < 10 nM
H358 xenograft tumor [4]; 12.5 mg/kg
  Antitumor activity T/C value (%): −68.5%
  Changes of body weight (%): −0.2%
H358 xenograft tumor [4]; 25 mg/kg
  Antitumor activity T/C value (%): −74.0%
  Changes of body weight (%): −0.1%
H358 xenograft tumor [4]; 50 mg/kg
  Antitumor activity T/C value (%): −93.5%
  Changes of body weight (%): 2.2%
H358 xenograft tumor [4]; 100 mg/kg
  Antitumor activity T/C value (%): −96.6%
  Changes of body weight (%): 1.9%
H358 xenograft tumor [4]; 12.5, 25, 50 and 100 mg/kg, versus vehicle control
  clinical symptoms and body weight (in words): no significant clinical symptoms and no significant changes in body weight
H358 xenograft tumor [4]; 12.5-100 mg/kg
  effect on tumor growth (in words): inhibited the growth of H358 tumor in a dose-dependent manner and could cause partial disappearance of tumor
  tolerability (in words): well tolerated
MIA-Paca2 (KRAS G12C); 72 hours
  IC50: < 10 nM
[5]; 50 mg/kg, po, bid, 28 days
  Antitumor activity T/C value (%): −100%
  Changes of body weight (%): 10.2%
[5]; 28 days oral, 73-1 50 mg/kg bid, AMG510 100 mg/kg qd
  effect on tumor (in words): cause the tumor to disappear completely

## pembrolizumab: PD-1 antibody
Mouse tumors
  mice whose tumor completely disappeared: 10%
